The target in one experiment is T1, TYK2 JH2 (Homo sapiens, UniProt P29597).
T1 construct: purchased DiscoverX (KINOMEscan KdELECT service); host or cells: E. coli BL21-derived (T7 phage display) or HEK-293
As to the kind of experiment: TYK2 JH2 binding assay (KINOMEscan KdELECT competitive binding). The settings on record: TYK2 JH2 domain, read-out: Biochemical TYK2_DiscoverX_JH2_BND_Kd. In a few lines:
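Kd values come from qPCR measurement of kinase retained on an immobilized-ligand resin after 1 h room-temperature competition with compound in an 11-point, 3-fold series.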

For experiment [1], the system named is JAK1/TYK2 pSTAT5 (Tyr694/699) in THP-1 cell line. As to the kind of experiment: IFNa-stimulated JAK1/TYK2 pSTAT5 (Tyr694/699) inhibition cellular assay, AlphaLISA. The format is cell-based. The settings on record: Homo sapiens; THP-1 cells, IFNa-stimulated, AlphaLISA (Assay B); read-out: Cellular_THP1_IFNa-pSTATS_TYK2. In a few lines:
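Compound dilutions were dispensed first, and HBSS-suspended THP-1 cells were added on top (final top concentration 10000 nM, 6-fold series). After 1 h at 37 °C, IFNa (100 ng/mL as added) was applied for 30 min. Cells were then lysed and pSTAT5 was quantified by AlphaLISA.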

Where [2] appears, read: DiscoverX KINOMEscan KdELECT (Assay A).

Where two headings read alike, the source gives them in different places. Some results are limits rather than exact numbers.

T1 sequence (P29597 589-875 limits assumed): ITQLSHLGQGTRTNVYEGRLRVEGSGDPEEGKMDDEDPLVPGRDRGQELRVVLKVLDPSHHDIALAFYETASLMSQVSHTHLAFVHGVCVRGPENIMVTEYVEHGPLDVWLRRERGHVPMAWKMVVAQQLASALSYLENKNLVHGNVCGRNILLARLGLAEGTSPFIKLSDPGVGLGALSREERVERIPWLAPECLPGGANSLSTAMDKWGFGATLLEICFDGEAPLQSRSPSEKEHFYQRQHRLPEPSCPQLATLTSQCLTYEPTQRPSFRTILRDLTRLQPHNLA

As for `[2H]C([2H])([2H])Nc1ncc(-c2nc3ccccn3n2)c2cc(NC(=O)[C@@H]3C[C@@H]3F)ncc12` [Example 567, (1S,2S)—N-(5-([1,2,4]triazolo[1,5-a]pyridin-2-yl)-8-((methyl-d3)amino)-2,7-naphthyridin-3-yl)-2-fluorocyclopropane-1-carboxamide], the Kd at TYK2 JH2 (setting [2]) is no more than 100 nM. The IC50 in experiment [1] was no more than 500 nM.
For the compound `[2H]C([2H])([2H])Nc1ncc(-c2nc3ccc(OC)cn3n2)c2cc(NC(=O)[C@H]3C[C@H]3F)ncc12` [Example 568, (1R,2R)-2-fluoro-N-(5-(6-methoxy-[1,2,4]triazolo[1,5-a]pyridin-2-yl)-8-((methyl-d3)amino)-2,7-naphthyridin-3-yl)cyclopropane-1-carboxamide], at TYK2 JH2 (setting [2]), the Kd was no more than 100 nM. The IC50 in experiment [1] is no more than 500 nM.
On to `[2H]C([2H])([2H])Nc1ncc(-c2nc3ccc(OC)cn3n2)c2cc(NC(=O)[C@@H]3C[C@@H]3F)ncc12` [Example 569, (1S,2S)-2-fluoro-N-(5-(6-methoxy-[1,2,4]triazolo[1,5-a]pyridin-2-yl)-8-((methyl-d3)amino)-2,7-naphthyridin-3-yl)cyclopropane-1-carboxamide], for which the Kd at TYK2 JH2 (setting [2]) is no more than 100 nM. Also, the IC50 in experiment [1] was no more than 500 nM.
For `[2H]C([2H])([2H])Nc1ncc(-c2nc3ccc(OC)cn3n2)c2cc(NC(=O)[C@H]3C[C@H]3C)ncc12` [Example 570, (1S,2R)—N-(5-(6-methoxy-[1,2,4]triazolo[1,5-a]pyridin-2-yl)-8-((methyl-d3)amino)-2,7-naphthyridin-3-yl)-2-methylcyclopropane-1-carboxamide], in that order: no more than 100 nM and no more than 500 nM.
For `[2H]C([2H])([2H])Nc1ncc(-c2nc3ccc(N4CCOCC4)cn3n2)c2cc(NC(=O)C3(F)CC3)ncc12` [Example 571, 1-fluoro-N-(8-((methyl-d3)amino)-5-(6-morpholino-[1,2,4]triazolo[1,5-a]pyridin-2-yl)-2,7-naphthyridin-3-yl)cyclopropane-1-carboxamide], in that order: no more than 100 nM and no more than 500 nM.
Consider `[2H]C([2H])([2H])Nc1ncc(-c2nc3ccc(N4CCOCC4)cn3n2)c2cc(NC(=O)[C@H]3C[C@H]3C)ncc12` [Example 572, (1S,2R)-2-methyl-N-(8-((methyl-d3)amino)-5-(6-morpholino-[1,2,4]triazolo[1,5-a]pyridin-2-yl)-2,7-naphthyridin-3-yl)cyclopropane-1-carboxamide], for which the Kd at TYK2 JH2 (setting [2]) was no more than 100 nM. Further, the IC50 in experiment [1] is no more than 500 nM.
The like results for `[2H]C([2H])([2H])Nc1ncc(-c2nc3ccc(N4CCO[C@@H](C)C4)cn3n2)c2cc(NC(=O)C3(F)CC3)ncc12` [Example 576, (S)-1-fluoro-N-(8-((methyl-d3)amino)-5-(6-(2-methylmorpholino)-[1,2,4]triazolo[1,5-a]pyridin-2-yl)-2,7-naphthyridin-3-yl)cyclopropane-1-carboxamide] were, in that order, no more than 100 nM and no more than 500 nM.
Consider `[2H]C([2H])([2H])Nc1ncc(-c2nc3ccc(C)cn3n2)c2cc(NC(=O)C3(F)CC3)ncc12` [Example 577, 1-fluoro-N-(8-((methyl-d3)amino)-5-(6-methyl-[1,2,4]triazolo[1,5-a]pyridin-2-yl)-2,7-naphthyridin-3-yl)cyclopropane-1-carboxamide], for which the Kd at TYK2 JH2 (setting [2]) was no more than 100 nM. Further, the IC50 in experiment [1] was greater than 500 nM.
The like results for `[2H]C([2H])([2H])Nc1ncc(-c2nc3ccc(C)cn3n2)c2cc(NC(=O)[C@@H]3C[C@@H]3F)ncc12` [Example 578, (1S,2S)-2-fluoro-N-(8-((methyl-d3)amino)-5-(6-methyl-[1,2,4]triazolo[1,5-a]pyridin-2-yl)-2,7-naphthyridin-3-yl)cyclopropane-1-carboxamide] were, in that order, no more than 100 nM and no more than 500 nM.
For the compound `CCNc1ncc(-c2nc3ccc(N4CCOCC4)cn3n2)c2cc(NC(=O)[C@H]3C[C@H]3C)ncc12` [Example 579, (1S,2R)—N-(8-(ethylamino)-5-(6-morpholino-[1,2,4]triazolo[1,5-a]pyridin-2-yl)-2,7-naphthyridin-3-yl)-2-methylcyclopropane-1-carboxamide], on TYK2 JH2 (setting [2]), the Kd is no more than 100 nM. Also, the IC50 in experiment [1] was no more than 500 nM.
For the compound `CCNc1ncc(-c2nc3ccc(N4CCOCC4)cn3n2)c2cc(NC(=O)C3(F)CC3)ncc12` [Example 580, N-(8-(ethylamino)-5-(6-morpholino-[1,2,4]triazolo[1,5-a]pyridin-2-yl)-2,7-naphthyridin-3-yl)-1-fluorocyclopropane-1-carboxamide], the Kd on TYK2 JH2 (setting [2]) is no more than 100 nM. For the same compound, in experiment [1], the IC50 was no more than 500 nM.
For `CCNc1ncc(-c2nc3ccc(N4CC5CN(C)CC(C4)O5)cn3n2)c2cc(NC(=O)C3CC3)ncc12` [Example 581, N-(8-(ethylamino)-5-(6-(7-methyl-9-oxa-3,7-diazabicyclo[3.3.1]nonan-3-yl)-[1,2,4]triazolo[1,5-a]pyridin-2-yl)-2,7-naphthyridin-3-yl)cyclopropanecarboxamide], in that order: no more than 100 nM and no more than 500 nM.
For `CNc1ncc(-c2nc3ccc(N4CC5CN(C6CC6)CC(C4)O5)cn3n2)c2cc(NC(=O)C3CC3)ncc12` [Example 582, N-(5-(6-(7-cyclopropyl-9-oxa-3,7-diazabicyclo[3.3.1]nonan-3-yl)-[1,2,4]triazolo[1,5-a]pyridin-2-yl)-8-(methylamino)-2,7-naphthyridin-3-yl)cyclopropanecarboxamide], in that order: no more than 100 nM and no more than 500 nM.
For `CNc1ncc(-c2nc3ccc(N4CC5COCC(C5)C4)cn3n2)c2cc(NC(=O)C3CC3)ncc12` [Example 583, N-(5-(6-(3-oxa-7-azabicyclo[3.3.1]nonan-7-yl)-[1,2,4]triazolo[1,5-a]pyridin-2-yl)-8-(methylamino)-2,7-naphthyridin-3-yl)cyclopropanecarboxamide], in that order: no more than 100 nM and no more than 500 nM.
With `CNc1ncc(-c2nc3ccc(N4CC5CCC(C4)O5)cn3n2)c2cc(NC(=O)C3CC3)ncc12` [Example 584, N-(5-(6-(8-oxa-3-azabicyclo[3.2.1]octan-3-yl)-[1,2,4]triazolo[1,5-a]pyridin-2-yl)-8-(methylamino)-2,7-naphthyridin-3-yl)cyclopropanecarboxamide], on TYK2 JH2 (setting [2]), the Kd was no more than 100 nM. Besides, the IC50 in experiment [1] is no more than 500 nM.
For `CNc1ncc(-c2nc3ccc(N4CCOCC4)cn3n2)c2cc(Nc3ccc(C(C)(C)O)c(F)n3)ncc12` [Example 589, 2-(2-fluoro-6-((8-(methylamino)-5-(6-morpholino-[1,2,4]triazolo[1,5-a]pyridin-2-yl)-2,7-naphthyridin-3-yl)amino)pyridin-3-yl)propan-2-ol], in that order: no more than 100 nM and no more than 500 nM.
The like results for `CNc1ncc(-c2nc3ccc(N4CCO[C@@H](C)C4)cn3n2)c2cc(NC(=O)[C@@H]3C[C@@H]3C)ncc12` [Example 590, (1R,2S)-2-methyl-N-(8-(methylamino)-5-(6-((S)-2-methylmorpholino)-[1,2,4]triazolo[1,5-a]pyridin-2-yl)-2,7-naphthyridin-3-yl)cyclopropane-11-carboxamide] were, in that order, no more than 100 nM and no more than 500 nM.
For `CNc1ncc(C#Cc2ccc(OC)cc2)c2cc(NC(=O)C3CC3)ncc12` [Example 591, N-(5-((4-methoxyphenyl)ethynyl)-8-(methylamino)-2,7-naphthyridin-3-yl)cyclopropanecarboxamide], in that order: no more than 100 nM and no more than 500 nM.
As for `CNc1ncc(C#CC2CCOCC2)c2cc(NC(=O)C3CC3)ncc12` [Example 592, N-(8-(methylamino)-5-((tetrahydro-2H-pyran-4-yl)ethynyl)-2,7-naphthyridin-3-yl)cyclopropanecarboxamide], on TYK2 JH2 (KINOMEscan KdELECT (Assay A)), the Kd was no more than 100 nM. The IC50 in experiment [1] is greater than 500 nM.
Turning to `CNc1ncc(C#Cc2cccc(O)c2)c2cc(NC(=O)C3CC3)ncc12` [Example 593, N-(5-((3-hydroxyphenyl)ethynyl)-8-(methylamino)-2,7-naphthyridin-3-yl)cyclopropanecarboxamide], the Kd on TYK2 JH2 (KINOMEscan KdELECT (Assay A)) was no more than 100 nM. Also, the IC50 in experiment [1] is no more than 500 nM.
The like results for `CCNc1ncc(C#Cc2ccc(OC)cn2)c2cc(NC(=O)C3CC3)ncc12` [Example 594, N-(8-(ethylamino)-5-((5-methoxypyridin-2-yl)ethynyl)-2,7-naphthyridin-3-yl)cyclopropanecarboxamide] were, in that order, no more than 100 nM and no more than 500 nM.
For `CNc1ncc(C#Cc2ccc3nnn(C)c3c2)c2cc(NC(=O)C3CC3)ncc12` [Example 595, N-(5-((1-methyl-1H-benzo[d][1,2,3]triazol-6-yl)ethynyl)-8-(methylamino)-2,7-naphthyridin-3-yl)cyclopropanecarboxamide], in that order: no more than 100 nM and no more than 500 nM.
For `CNc1ncc(C#Cc2ccn(C)n2)c2cc(NC(=O)C3CC3)ncc12` [Example 596, N-(5-((1-methyl-1H-pyrazol-3-yl)ethynyl)-8-(methylamino)-2,7-naphthyridin-3-yl)cyclopropanecarboxamide], in that order: no more than 100 nM and no more than 500 nM.

For the origin of these results see patent publication US20240025906A1 (NEURON23, INC., priority 2022, published 2024).
